Source: the NIST ThermoML archive (doi:10.1016/j.jct.2006.08.009)

Assay: mn = molality of the nth substance listed, in mol/kg
Conditions: 350 kPa, Liquid; for apparent molar heat capacity: Extra sensitive DSC

OC[C@@H](O)[C@@H](O)CO [meso-1,2,3,4-butanetetrol] + O
Conditions	apparent molar heat capacity [J/K/mol]	mass density [kg/m3]
278.15 K, m1 = 0.0201	261	1000.64
278.15 K, m1 = 0.05	279	1001.78
278.15 K, m1 = 0.0999	275.3	1003.47
278.15 K, m1 = 0.2501	273	1009.14
278.15 K, m1 = 0.4998	272.1	1017.67
278.15 K, m1 = 1	270.3	1034.19
278.15 K, m1 = 2.002	264	1062.98
278.15 K, m1 = 3.003	267.2	1087.04
283.15 K, m1 = 0.0201	273	1000.38
283.15 K, m1 = 0.05	290	1001.54
283.15 K, m1 = 0.0999	287.2	1003.19
283.15 K, m1 = 0.2501	285.1	1008.79
283.15 K, m1 = 0.4998	284.1	1017.48
283.15 K, m1 = 1	282.7	1033.48
283.15 K, m1 = 2.002	277.2	1061.96
283.15 K, m1 = 3.003	279.1	1085.8
288.15 K, m1 = 0.0201	282	999.84
288.15 K, m1 = 0.05	300	1000.96
288.15 K, m1 = 0.0999	296.3	1002.66
288.15 K, m1 = 0.2501	294.4	1008.13
288.15 K, m1 = 0.4998	293.4	1016.68
288.15 K, m1 = 1	291.9	1032.49
288.15 K, m1 = 2.002	286.3	1060.61
288.15 K, m1 = 3.003	288	1084.24
293.15 K, m1 = 0.0201	290	–
293.15 K, m1 = 0.05	307	–
293.15 K, m1 = 0.0999	303.8	–
293.15 K, m1 = 0.2501	302.3	–
293.15 K, m1 = 0.4998	301.3	–
293.15 K, m1 = 1	299.9	–
293.15 K, m1 = 2.002	294.2	–
293.15 K, m1 = 3.003	295.7	–
298.15 K, m1 = 0.0201	296	997.79
298.15 K, m1 = 0.05	314	998.88
298.15 K, m1 = 0.0999	310.6	1000.55
298.15 K, m1 = 0.2501	309	1005.86
298.15 K, m1 = 0.4998	308.1	1014.19
298.15 K, m1 = 1	306.6	1029.78
298.15 K, m1 = 2.002	300.7	1057.38
298.15 K, m1 = 3.003	302.1	1080.61
303.15 K, m1 = 0.0201	301	–
303.15 K, m1 = 0.05	320	–
303.15 K, m1 = 0.0999	316.6	–
303.15 K, m1 = 0.2501	315	–
303.15 K, m1 = 0.4998	314	–
303.15 K, m1 = 1	312.5	–
303.15 K, m1 = 2.002	306.6	–
303.15 K, m1 = 3.003	307.8	–
308.15 K, m1 = 0.0201	307	994.74
308.15 K, m1 = 0.05	325	995.77
308.15 K, m1 = 0.0999	321.8	997.29
308.15 K, m1 = 0.2501	320.2	1002.7
308.15 K, m1 = 0.4998	319.2	1010.88
308.15 K, m1 = 1	317.6	1026.18
308.15 K, m1 = 2.002	311.8	1053.42
308.15 K, m1 = 3.003	312.9	1076.46
313.15 K, m1 = 0.0201	311	–
313.15 K, m1 = 0.05	330	–
313.15 K, m1 = 0.0999	326.5	–
313.15 K, m1 = 0.2501	324.8	–
313.15 K, m1 = 0.4998	323.8	–
313.15 K, m1 = 1	322.3	–
313.15 K, m1 = 2.002	316.4	–
313.15 K, m1 = 3.003	317.4	–
318.15 K, m1 = 0.0201	315	990.96
318.15 K, m1 = 0.05	334	991.95
318.15 K, m1 = 0.0999	330.6	993.44
318.15 K, m1 = 0.2501	328.9	998.78
318.15 K, m1 = 0.4998	327.9	–
318.15 K, m1 = 1	326.4	–
318.15 K, m1 = 2.002	320.6	–
318.15 K, m1 = 3.003	321.5	–
